The source of these data is patent publication US4504480A, “Pentacyclic compounds” (Beecham Group p.l.c., priority 1982, dated 1985).

The target of the assay is T1, α2-adrenoceptors (Rattus norvegicus, UniProt P22909).
T1 construct: isolated rat-brain synaptic membrane fragments; from tissue; host or cells: rat brain, synaptic membrane fragments
T1 sequence (P22909 1-465): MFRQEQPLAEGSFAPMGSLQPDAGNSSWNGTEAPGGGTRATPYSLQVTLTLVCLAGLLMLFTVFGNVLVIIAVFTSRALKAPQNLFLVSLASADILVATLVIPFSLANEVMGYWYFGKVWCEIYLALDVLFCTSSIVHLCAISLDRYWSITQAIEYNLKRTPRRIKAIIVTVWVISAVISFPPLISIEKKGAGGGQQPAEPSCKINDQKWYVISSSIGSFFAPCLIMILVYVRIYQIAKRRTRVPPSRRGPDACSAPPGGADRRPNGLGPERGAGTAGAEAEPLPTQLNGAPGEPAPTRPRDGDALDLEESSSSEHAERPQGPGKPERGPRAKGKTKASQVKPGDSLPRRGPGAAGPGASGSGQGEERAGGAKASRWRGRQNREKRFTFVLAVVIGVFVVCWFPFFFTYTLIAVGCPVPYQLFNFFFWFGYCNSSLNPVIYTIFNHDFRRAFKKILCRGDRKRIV
The assay is described as follows: inhibition of [3H]-clonidine binding to isolated rat-brain synaptic membrane fragments. To be noted: from IC50 by Cheng-Prusoff equation. From the text: Blockade of presynaptic α2 -adrenoceptors on noradrenergic neurones effects an increase in intrasynaptic noradrenaline, and thus in the central nervous system could be expected to have an antidepressant effect. [^3 H]-Clonidine binds to α2 -adrenoceptor sites and inhibition of this binding correlates with the blockade of α2 -adrenoceptors. In vitro inhibition by some of the present compounds of the binding of [^3 H]-clonidine to isolated rat-brain synaptic membrane fragments was therefore determined to provide an indication of antidepressant activity. This was carried out using standard biochemical binding study techniques, by the method of Maggi et al, Eur. J. Pham. 1980, 61, 91. IC50 values were obtained from log [dose] against % inhibition curves; Ki values were determined using the Cheng-Prusoff equation.

For the compound `CN1CCN2c3ccccc3Cc3cccc4c3[C@@H]2[C@H]1CC4` (relative stereo) [Example II, trans-13-methyl-1,2,6,11,12,13,13a,13b-octahydro-10b13-diazabenzo[gh]pleiadene], the Ki was 169 nM.

`CN1CCN2c3ccccc3Cc3cccc4c3[C@@H]2[C@H]1C4` (relative stereo) [Example I, trans-12-Methyl-1,10,11,12,12a,12b-hexahydro-5H-9b,12-diazabenzo[5,6]cyclohepta[1,2,3,4-def]fluorene] displayed an inhibitory constant (Ki) of 88 nM.

A word on the Ki: it is a measure of affinity in units of concentration, obtained from inhibition or displacement. A low value points to higher affinity.
